Paper PMC10256634, “Comparative in vivo toxicokinetics of silver powder, nanosilver and soluble silver compounds after oral administration to rats” (Archives of Toxicology, 2023)
Several values for one entry are separate records, joined by “and”; a condition that tells them apart may be missing. Equal values may be shown once.

Assays:
[1] = Toxicokinetics after 28 days repeated oral gavage dosing, total Ag in whole blood (ICP-MS); conditions: for AUC0-t / DN AUC0-t: 0 to 96 h post-dose
[2] = Clinical observations, bodyweight, organ weights and macroscopic examination; assay type: in vivo, Sprague–Dawley rats; conditions: repeated dose study, 175 mg AgAc/kg bw/d
Protocol: Animals were inspected visually at least twice daily for evidence of clinical signs or change in health status. As applicable, injection sites were regularly assessed post-dosing for any local reaction. Bodyweight was measured for all single-dose treatments before administration (typically the day before treatment), on the day of administration and on the day of termination. For the 28-day repeated administration phase, the bodyweight of each animal was recorded pre-treatment, on Day 1 of treatment and then at weekly intervals (including on the day of termination).
Following final blood sampling, animals were euthanised using carbon dioxide asphyxiation, with subsequent exsanguination, prior to macroscopic examination for the investigation of any abnormalities. Tissues for analysis of total Ag content were obtained from animals administered the test items for 28 days. The tissue set comprised: brain (whole), bone marrow (from both femurs), small intestine (duodenum/ileum/jejenum), liver, spleen, ovaries, testes (excluding epididymides) and uterus. The luminal contents of GI tract samples were thoroughly flushed out with cold purified water. After weighing, tissues were retained frozen (− 20 °C).

[3] = test system: serum copper (Cu) levels; assay: Serum Cu levels after 28 days repeated oral dosing (ICP-MS); conditions: for Serum Cu conc. % of Control group mean: mean (SD)
Protocol: Samples of whole blood (0.2 mL) were obtained from the jugular vein of animals, with lithium heparin integrated as an anticoagulant. […] Each sample was gently mixed and frozen on dry ice, pending transfer to storage at − 20 °C. […] Serum was obtained by centrifugation (10 min, 2000 RCF) and stored frozen until analysis.
Previous robust TK studies involving the analysis of Ag in biological matrices have utilised aggressive digestion techniques, typically based on digestion/mineralisation in concentrated HNO3 with microwave-accelerated reaction systems. To avoid subsequent precipitation of Ag into insoluble complexes and subsequent loss for analysis, sample stabilisation with an excess of chloride (e.g. HCl) is appropriate. These principles were adopted for sample processing in this investigation. In brief, each blood subsample (50 µL) was combined with 800 µL concentrated HNO3 (65–70%) in a glass pyrex tube. The contents were then digested in an Ultrawave (Milestone, Italy) digester using digestion programme ‘blood’. Afterwards, 800 μL HCl (37%) was added, and 400 μL of the HNO3/HCl digest was combined with 2.60 mL of rhodium internal standard followed by rotary mixing for at least 30 min. The processed sample was then analysed on an Agilent 7900 × inductively coupled plasma mass spectrometer (ICP-MS). […] The digestion was 20 min at elevated temperature and pressure (200 °C, 100 bar, 1500 W). Then, 3 parts of concentrated HCl (35–40%) were added, and the digest was stored at − 20 °C until analysis. A 50 µL subsample was subsequently mixed with 3.95 mL of rhodium internal standard and analysed by ICP-MS. Analysis occurred within the 48-day assured stability period.
All bioanalytical methods underwent validation before deployment. ICP-MS runs included quality control samples and a multilevel calibration. Lower limits of quantitation (LLOQ) for the analytical methods were, respectively, 10 ng/mL for total Ag in blood, 5 ng/mL for total Ag in tissue and 30 ng Cu/mL for Cu in serum.

[4] = 28 d oral 5 mg/kg bw/d [Ag equivalent 3.25 AgAc, 3.2 AgNO3], female
[5] = 28 d oral 5 mg/kg bw/d [Ag equivalent 3.25 AgAc, 3.2 AgNO3], male
[6] = 28 d oral 175 [114 Ag] mg/kg bw/d, female
[7] = 28 d oral 175 [114 Ag] mg/kg bw/d, male
[8] = 28 d oral 125 [80 Ag] mg/kg bw/d, female
[9] = 28 d oral 125 [80 Ag] mg/kg bw/d, male

For `CC(=O)[O-].[Ag+]` [AgAc, Silver(I) acetate], the AUC0-t [1, 4] was 10,200 ng.h/mL, the “DN AUC0-t” value [1, 4] was 2960 (ng.h/mL)/(mg/kg bw/d) and the AUC0-t [1, 5] was 6220 ng·h/mL. The “DN AUC0-t” value [1, 5] was 1770 (ng.h/mL)/(mg/kg bw/d), the Cmax [1, 4] was 216 ng/mL and the Tmax [1, 4] was 3 h. It also gave a t1/2 [1, 4] of 41.3 h, a Cmax [1, 5] of 153 ng/mL and a Tmax [1, 5] of 7.5 h. The t1/2 [1, 5] was 32.1 h, the AUC0-t [1, 6] was 51,000 ng.h/mL and the “DN AUC0-t” value [1, 6] was 400 (ng.h/mL)/(mg/kg bw/d). The AUC0-t [1, 7] was 43,000 ng.h/mL, the “DN AUC0-t” value [1, 7] was 342 (ng.h/mL)/(mg/kg bw/d) and the Cmax [1, 6] was 930 ng/mL. It also gave a Tmax [1, 6] of 3 h, a t1/2 [1, 6] of 40.4 h and a Cmax [1, 7] of 766 ng/mL. For the same molecule, the Tmax [1, 7] was 3 h, the t1/2 [1, 7] was 36.3 h and the bodyweight [2] was “slight depression in weight gain during Week 1”.

Molecule `O=[N+]([O-])[O-].[Ag+]` [AgNO3, silver(I) nitrate] has an AUC0-t [1, 4] of 7690 ng·h/mL, an AUC0-t [1, 5] of 5470 ng·h/mL and a Cmax [1, 4] of 177 ng/mL. For the same molecule, the Tmax [1, 4] was 6 h, the t1/2 [1, 4] was 37.5 h and the Cmax [1, 5] was 132 ng/mL. The Tmax [1, 5] was 4.5 h, the t1/2 [1, 5] was 42.1 h and the AUC0-t [1, 8] was 54,100 ng.h/mL. The AUC0-t [1, 9] was 42,800 ng.h/mL, the Cmax [1, 8] was 997 ng/mL and the Tmax [1, 8] was 18 h. The t1/2 [1, 8] was 39.8 h, the Cmax [1, 9] was 738 ng/mL and the Tmax [1, 9] was 12 h. The t1/2 [1, 9] was 42.0 h, the “Serum Cu conc. % of Control group mean” value ([3]; 28 d oral 5 [3.2 Ag] mg/kg bw/d, female) was 101 (10) % of Control group mean and the “Serum Cu conc. % of Control group mean” value ([3]; 28 d oral 5 [3.2 Ag] mg/kg bw/d, male) was 111 (25) % of Control group mean. The “Serum Cu conc. % of Control group mean” value ([3]; 28 d oral 55 [35 Ag] mg/kg bw/d, female) was 81 (11) % of Control group mean, the “Serum Cu conc. % of Control group mean” value ([3]; 28 d oral 55 [35 Ag] mg/kg bw/d, male) was 79 (13) % of Control group mean and the “Serum Cu conc. % of Control group mean” value [3, 8] was 74 % of Control group mean and 74 (15) % of Control group mean. The “Serum Cu conc. % of Control group mean” value [3, 9] was 62 % of Control group mean and 62 (12) % of Control group mean and the “Effect on circulating Cu levels” value ([3]; 28 d oral, AgMP up to limit dose 1000 mg/kg bw/d, AgNO3 detectable at 55, statistically significant at 125 mg/kg bw/d) was “reduction in circulating Cu levels was observed”.
